Each block holds one compound with its values, some of them ahead of it. Activity calls are given as the source filed them. No cut-off for these calls is given here.
Experiments:
MDA-MB-231 [1] = test: Anticancer activity against human MDA-MB-231 cells assessed as reduction in cell viability at 1 uM incubated for 24 hrs in presence of irradiation with 500 to 700nm and 12 J/cm^2 LED light by CCK-8 assay; format: functional, cell-based
4T1 [2] = test: Anticancer activity against mouse 4T1 cells assessed as reduction in cell viability at 1 uM incubated for 24 hrs under photoirradiation with 500 to 700nm and 12 mW/cm^2 LED light by CCK-8 assay; format: functional, cell-based
[3] = Photostability of compound in EtOH assessed as compound decomposition at 50 uM incubated for 5 to 20 mins under photoirradiation with 550nm and 10 J/cm^2 LED light by UV-visible spectroscopic analysis; format: physicochemical; settings: time 5-20 min
[4] = Induction of singlet oxygen production in ethanol assessed as change in absorption spectra at 380nm under photoirradiation with 550nm and 10 J/cm^2 LED light for 2 to 20 mins by ABDA based microplate reader analysis; format: functional; settings: time 2-20 min
[5] = Induction of superoxide anion radical production in aqueous solution assessed as increase in fluorescence intensity at 5 uM under photoirradiation with 550nm and 10 J/cm^2 LED light and measured after 8 mins by DHR123 based fluorescence spectroscopic analysis
[6] = Drug uptake in human MDA-MB-231 cells assessed as increase in intracellular uptake at 5 uM incubated for 10 mins by flow cytometry analysis; format: ADME, cell-based; settings: mda-mb-231, 10 min
[7] = Drug uptake in human MDA-MB-231 cells assessed as increase in intracellular uptake at 5 uM incubated for 2 hrs by flow cytometry analysis; format: ADME, cell-based; settings: mda-mb-231, 2 h
MDA-MB-231 [8] = test: Induction of intracellular ROS generation in human MDA-MB-231 cells assessed as fold increase in intracellular ROS level at 2.5 uM incubated for 2 hrs followed by under photoirradiation with 500 to 700nm and 12 J/cm^2 LED light by DCFH-DA staining based fluorometric analysis relative dark control group; format: functional
MDA-MB-231 [9] = test: Anticancer activity against human MDA-MB-231 cells assessed as reduction in cell viability incubated for 24 hrs by CCK-8 assay; format: functional, cell-based; settings: MDA-MB-231, 24 h
MDA-MB-231 [10] = test: Anticancer activity against human MDA-MB-231 cells assessed as reduction in cell viability incubated for 24 hrs in presence of irradiation with 500 to 700nm and 12 J/cm^2 LED light by CCK-8 assay; format: functional, cell-based; settings: MDA-MB-231, light or radiation study
MDA-MB-231 [11] = test: Phototoxicity against human MDA-MB-231 cells assessed as reduction in cell viability incubated for 24 hrs in presence of irradiation with 500 to 700nm and 12 J/cm^2 LED light by CCK-8 assay; format: functional, cell-based
[12] = Drug localization in lysosome of human MDA-MB-231 cells assessed as increase in apparent yellow fluorescent signal at 5 uM incubated for 2 hrs by Lyso-Tracker Green, ER-Tracker Green, Mito-Tracker Green and Hoechst 33342 staining based confocal laser scanning microscopy; format: ADME, subcellular; settings: mda-mb-231, 2 h
4T1 [13] = test: Anticancer activity against mouse 4T1 cells assessed as fold increase in gamma-H2A.X protein expression at 1 uM preincubated for 2 hrs followed by photoirradiation with 500 to 700nm and 12 J/cm^2 LED light and measured after 24 hrs by Western blot analysis relative to control; format: functional; settings: time 26 hrs
4T1 [14] = test: Anticancer activity against mouse 4T1 cells assessed as fold increase in cleaved caspase-3 protein expression at 1 uM preincubated for 2 hrs followed by photoirradiation with 500 to 700nm and 12 J/cm^2 LED light and measured after 24 hrs by Western blot analysis relative to control; format: functional; settings: time 26 hrs
4T1 [15] = test: Anticancer activity against mouse 4T1 cells assessed as reduction in cell viability incubated for 24 hrs in presence of irradiation with 500 to 700nm and 12 J/cm^2 LED light by CCK-8 assay; format: functional, cell-based; settings: 4T1, light or radiation study
[16] = Stability of compound in various pH; format: physicochemical
[17] = Induction of singlet oxygen production in ethanol assessed as singlet oxygen quantum yield at 410nm under photoirradiation with 550nm and 10 mW/cm^2 LED light for 10 to 80 secs by DPBF based microplate reader analysis; format: functional; settings: time 10-80 sec
[18] = Drug metabolism in carboxylesterase (unknown origin) assessed as formation of active photosensitizer 6-amino-5-iodo-1H-phenalen-1-one by measuring increase in fluorescence at 610nM at 10 uM under by fluorescence assay; format: ADME; settings: human
[19] = Drug metabolism in carboxylesterase (unknown origin) assessed as formation of active photosensitizer 6-amino-5-iodo-1H-phenalen-1-one at 10 uM under by LC-MS/MS analysis assay; format: ADME; settings: human
[20] = Stability of compound in GSH at 10 uM incubated for 30 mins by fluorescence assay; format: physicochemical; settings: 0.5 h
[21] = Stability of compound in H2O2 at 10 uM incubated for 30 mins by fluorescence assay; format: physicochemical; settings: 0.5 h
[22] = Stability of compound in gamma-glutamyl transpeptidase at 10 uM incubated for 30 mins by fluorescence assay; format: physicochemical; settings: 0.5 h
[23] = Drug metabolism in human MDA-MB-231 cells assessed as increase in SR expression at 5 uM incubated for 12 hrs by flow cytometry analysis; format: ADME, cell-based; settings: mda-mb-231, 12 h
MDA-MB-231 [24] = test: Anticancer activity against human MDA-MB-231 cells assessed as reduction in cell viability at 0.01 to 10 uM incubated for 24 hrs by CCK-8 assay; format: functional, cell-based; settings: dose 0.01-10 µM
4T1 [25] = test: Anticancer activity against mouse 4T1 cells assessed as reduction in cell viability at 0.01 to 10 uM incubated for 24 hrs by CCK-8 assay; format: functional, cell-based; settings: dose 0.01-10 µM
MDA-MB-231 [26] = test: Anticancer activity against human MDA-MB-231 cells assessed as reduction in cell viability preincubated for 12 hrs followed by photoirradiation with 500 to 700nm and 12 J/cm^2 LED light for 24 hrs by CCK-8 assay; format: functional, cell-based; settings: MDA-MB-231, light or radiation study
4T1 [27] = test: Anticancer activity against mouse 4T1 cells assessed as reduction in cell viability preincubated for 12 hrs followed by photoirradiation with 500 to 700nm and 12 J/cm^2 LED light for 24 hrs by CCK-8 assay; format: functional, cell-based; settings: 4T1, light or radiation study
MDA-MB-231 [28] = test: Anticancer activity against human MDA-MB-231 cells assessed as number of dead cells at 2.5 uM incubated for 12 hrs by calcein-AM and propidium iodide staining based flow cytometry; format: functional, cell-based
MDA-MB-231 [29] = test: Anticancer activity against human MDA-MB-231 cells assessed as number of dead cells at 2.5 uM preincubated for 12 hrs followed by photoirradiation with 500 to 700nm and 12 J/cm^2 LED light for 10 mins by calcein-AM and propidium iodide staining based flow cytometry; format: functional, cell-based; settings: time 12.2 hrs

Stability [3]: Stable
Drug uptake [6]: Active
Drug uptake [7]: Active
IC50 (MDA-MB-231 [9]): > 50 µM
IC50 (MDA-MB-231 [10]): 0.66 µM
Drug uptake [12]: Active
IC50 (4T1 [15]): 0.59 µM
SMILES: Nc1c(I)cc2c3c(cccc13)C(=O)C=C2
Activity (MDA-MB-231 [1]): Active
Activity (4T1 [2]): Active
Activity [4]: Active
Activity [5]: Active
fold change (FC) (MDA-MB-231 [8]): 5.54
Activity (MDA-MB-231 [11]): Active
fold change (FC) (4T1 [13]): 2.36
fold change (FC) (4T1 [14]): 3.09

Stability [3]: Stable
Stability [16]: Stable
Stability [20]: Stable
Stability [21]: Stable
Stability [22]: Stable
Drug metabolism [23]: Metabolite_Detected
IC50 (MDA-MB-231 [26]): 4 µM
IC50 (4T1 [27]): 4.8 µM
SMILES: O=C(Nc1c(I)cc2c3c(cccc13)C(=O)C=C2)c1ccccc1
Activity [17]: 0.1
Drug metabolism [18]: Metabolite_Detected
Drug metabolism [19]: Metabolite_Detected
Activity (MDA-MB-231 [24]): Active
Activity (4T1 [25]): Active
Activity (MDA-MB-231 [28]): inactive
Activity (MDA-MB-231 [29]): Active

SMILES: Nc1ccc2c3c(cccc13)C(=O)C=C2
Activity [4]: inactive

Source: ChEMBL document CHEMBL5321227, “Lysosome-targeting phenalenones as efficient type I/II photosensitizers for anticancer photodynamic therapy” (Eur J Med Chem, 2023)
